In PubChem BioAssay (NCI) one finds GI50 and TGI data, which are given here for eight compounds.

Some test systems named below: SNB-75 CNS; MOLT-4 leukemia; T-47D breast; OVCAR-8 ovarian; SK-MEL-28 melanoma; NCI-H23 lung; HOP-92 NSCLC; 786-0 renal; UACC-257 melanoma; MDA-MB-231 breast.
What all share (test): NCI tumour cell line growth inhibition, 48 h

Several values for one entry are separate records, joined by “and”; a condition that tells them apart may be missing. Equal entries are not always repeated.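 96-well plates; 48 h exposure; 5 concentrations. Endpoints by linear interpolation between flanking doses. Not reached: highest tested concentration assigned. Here, GI50 denotes the concentration required for 50% inhibition of growth. TGI marks complete inhibition of growth.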 A value given as a limit tells only on which side of the number the result lay.

Take `C#Cc1cc2c(N)c(C(=O)c3cc(OC)c(OC)c(OC)c3)[nH]c2cc1OC`: the GI50 in the test on SNB-75 CNS was 208 nM; with MOLT-4 leukemia, 903 nM; in the test with T-47D breast, 449 nM; in the test on OVCAR-8 ovarian, 2480 nM; in the test with SK-MEL-28 melanoma, 19300 nM; with NCI-H23 lung, 1940 nM. In addition, the GI50 with HOP-92 NSCLC was 334 nM; with 786-0 renal, 542 nM; with UACC-257 melanoma, 532 nM; with MDA-MB-231 breast, 5130 nM. Also, the TGI in the test on SNB-75 CNS is 1180 nM; in the test with MOLT-4 leukemia, 95200 nM; in the test on T-47D breast, 54700 nM; in the test on OVCAR-8 ovarian it was more than 100000 nM; with SK-MEL-28 melanoma, more than 100000 nM; in the test with NCI-H23 lung it was more than 100000 nM. Moreover, the TGI in the test with HOP-92 NSCLC is 37700 nM; in the test on 786-0 renal, more than 100000 nM; in the test on UACC-257 melanoma, more than 100000 nM; in the test with MDA-MB-231 breast, more than 100000 nM.

Take `CC1(C)[C@@H](OC(N)=O)C=C[C@]2(C=O)[C@H]3CC[C@]4(C)[C@@H](c5ccc(=O)oc5)[C@@H](Cl)C[C@]4(O)C3=CC[C@@H]12`: the GI50 with SNB-75 CNS is 4.07 nM; with MOLT-4 leukemia it was less than 2.5 nM; in the test with T-47D breast, 6.35 nM; in the test on OVCAR-8 ovarian, 5.17 nM; in the test on SK-MEL-28 melanoma, 6.42 nM; with NCI-H23 lung, 2.98 nM. Also, the GI50 in the test with HOP-92 NSCLC was 5.7 nM; with 786-0 renal, 4.78 nM; with UACC-257 melanoma, 5.65 nM; in the test with MDA-MB-231 breast, 8.99 nM. Moreover, the TGI in the test on SNB-75 CNS amounted to 9.32 nM; in the test with MOLT-4 leukemia it was 7.24 nM; with T-47D breast, 17.5 nM; in the test with OVCAR-8 ovarian it was 12.3 nM; in the test with SK-MEL-28 melanoma, 15.6 nM; in the test on NCI-H23 lung, 10.2 nM. Further, the TGI is 16.5 nM in the test on HOP-92 NSCLC, 10.6 nM with 786-0 renal, 14.1 nM in the test with UACC-257 melanoma and 49.2 nM with MDA-MB-231 breast.

With `CCCCCCNC(=O)Oc1ccc(/C(=C(\C)c2ccccc2)c2ccc(OCCN(CC)CC)cc2)cc1`, the GI50 with SNB-75 CNS was 3540 nM; in the test with MOLT-4 leukemia it was 1780 nM; in the test on T-47D breast, 1070 nM; in the test on OVCAR-8 ovarian, 6020 nM; with SK-MEL-28 melanoma, 3120 nM; in the test on NCI-H23 lung it was 5170 nM. Moreover, the GI50 is 2590 nM with HOP-92 NSCLC, 1500 nM in the test on 786-0 renal, 1210 nM in the test on UACC-257 melanoma and 5080 nM in the test with MDA-MB-231 breast. Besides, the TGI in the test on SNB-75 CNS is 10500 nM; in the test with MOLT-4 leukemia it was 7790 nM; in the test with T-47D breast it was 8170 nM; in the test with OVCAR-8 ovarian, 12900 nM; in the test on SK-MEL-28 melanoma, 9300 nM; in the test with NCI-H23 lung, 11600 nM. Besides, the TGI in the test with HOP-92 NSCLC was 9160 nM; with 786-0 renal, 5330 nM; with UACC-257 melanoma, 3170 nM; in the test with MDA-MB-231 breast it was 11400 nM.

As for `NS(=O)(=O)c1ccc(NC(=O)Nc2ccccc2F)cc1`, the TGI in the test with SNB-75 CNS, with MOLT-4 leukemia, in the test on T-47D breast, in the test with OVCAR-8 ovarian, in the test on SK-MEL-28 melanoma and in the test with NCI-H23 lung was more than 100000 nM each time. Further, the TGI in the test with HOP-92 NSCLC, in the test on 786-0 renal, in the test with UACC-257 melanoma and with MDA-MB-231 breast was more than 100000 nM throughout.

Turning to `N#Cc1c2c(c(-c3cccs3)n(C3OC(CO)C(O)C(O)C3O)c1=S)CCc1ccccc1-2` (stereo unspecified), the GI50 was 3490 nM and 1550 nM in the test with SNB-75 CNS; > 25100 nM and 7830 nM in the test on T-47D breast; 13500 nM and > 39300 nM with NCI-H23 lung; 3350 nM with HOP-92 NSCLC; 12300 nM and 25200 nM in the test on 786-0 renal; 15500 nM and 37300 nM in the test on MDA-MB-231 breast. Also, the TGI with SNB-75 CNS is > 29300 nM and 12700 nM; with MOLT-4 leukemia, more than 100000 nM; in the test with T-47D breast, more than 100000 nM; in the test on OVCAR-8 ovarian, more than 100000 nM; with SK-MEL-28 melanoma, more than 100000 nM; in the test with NCI-H23 lung it was more than 100000 nM. Further, the TGI with HOP-92 NSCLC is more than 88800 nM; in the test with 786-0 renal it was more than 100000 nM; in the test with UACC-257 melanoma it was more than 100000 nM; in the test on MDA-MB-231 breast it was more than 100000 nM.

Regarding `CCCCCc1c(C)[nH]c(/C=C2\N=C(c3ccc[nH]3)C=C2OCc2ccccc2)c1C`, the GI50 is 80.3 nM and 21.4 nM in the test with SNB-75 CNS; 36.5 nM and 40.2 nM with MOLT-4 leukemia; 44.5 nM and 31.1 nM with T-47D breast; 48.9 nM and 39 nM in the test with OVCAR-8 ovarian; 105 nM and 45.9 nM with SK-MEL-28 melanoma; 116 nM and 56.3 nM in the test on NCI-H23 lung. Moreover, the GI50 was 8.32 nM and 18.7 nM with HOP-92 NSCLC; 52 nM and 34.8 nM in the test with 786-0 renal; 191 nM and 76.7 nM with UACC-257 melanoma; 24.4 nM in the test with MDA-MB-231 breast. The TGI is 577 nM and 82.5 nM in the test on SNB-75 CNS; 1330 nM and 7140 nM in the test with MOLT-4 leukemia; 741 nM and 1010 nM with T-47D breast; 1230 nM and 172 nM with OVCAR-8 ovarian; 1050 nM and 267 nM with SK-MEL-28 melanoma; 2230 nM and 627 nM with NCI-H23 lung. Besides, the TGI in the test on HOP-92 NSCLC is 56.2 nM and 64.7 nM; with 786-0 renal it was 378 nM and 226 nM; in the test with UACC-257 melanoma it was 1530 nM and 668 nM; in the test with MDA-MB-231 breast it was 257 nM and 76.8 nM.

As for `COc1cc([C@@H]2c3cc4c(cc3C(OC3O[C@@H]5COC(C)O[C@H]5[C@H](O)[C@H]3O)C3COC(=O)[C@@H]32)OCO4)cc(OC)c1O` (stereo partly specified), the GI50 was 1180 nM in the test with SNB-75 CNS; 94.8 nM in the test on MOLT-4 leukemia; 331 nM in the test on T-47D breast; 1560 nM with OVCAR-8 ovarian; 2120 nM in the test with SK-MEL-28 melanoma; 652 nM with NCI-H23 lung. Further, the GI50 in the test on HOP-92 NSCLC is 397 nM; with 786-0 renal it was 976 nM; with UACC-257 melanoma, 2120 nM; in the test with MDA-MB-231 breast, 7250 nM. For the same compound, the TGI in the test with SNB-75 CNS is more than 18900 nM; with MOLT-4 leukemia it was 882 nM; with T-47D breast, more than 33100 nM; with OVCAR-8 ovarian, more than 34800 nM; with SK-MEL-28 melanoma it was more than 34600 nM; in the test with NCI-H23 lung it was 6880 nM. In addition, the TGI in the test with HOP-92 NSCLC was 9970 nM; in the test on 786-0 renal, 3670 nM; in the test on UACC-257 melanoma it was more than 50000 nM; in the test with MDA-MB-231 breast, more than 40400 nM.

With `O=C(CCl)Nc1cc(O)c2c(c1)C(=O)c1cccc(O)c1C2=O`, the GI50 is 1210 nM in the test on SNB-75 CNS; 321 nM in the test with MOLT-4 leukemia; 1190 nM in the test with T-47D breast; 2090 nM in the test with OVCAR-8 ovarian; 2790 nM in the test on SK-MEL-28 melanoma; 1130 nM with NCI-H23 lung. The GI50 with HOP-92 NSCLC was 1790 nM; in the test on 786-0 renal it was 1990 nM; with UACC-257 melanoma it was 2520 nM; in the test with MDA-MB-231 breast, 1910 nM. The TGI with SNB-75 CNS came out at 3200 nM; with MOLT-4 leukemia, 1760 nM; in the test on T-47D breast, 3610 nM; in the test on OVCAR-8 ovarian, 7650 nM; in the test on SK-MEL-28 melanoma, 8950 nM; in the test with NCI-H23 lung it was 3450 nM. Further, the TGI turned out to be 3630 nM in the test on HOP-92 NSCLC, 4160 nM with 786-0 renal, 6410 nM with UACC-257 melanoma and 5880 nM in the test with MDA-MB-231 breast.
